Reference: ChEMBL document CHEMBL1127716, “-Ketothiazole inhibitors of prolyl endopeptidase” (Bioorg Med Chem Lett, 1994)

Target: Prolyl endopeptidase (Sus scrofa, UniProt P23687)
Test: Compound was evaluated for the inhibition of Prolyl endopeptidase (PEP) from pig kidney using Z-Gly-Pro-p-nitroanilide as substrate

Sequence of Prolyl endopeptidase (P23687 whole entry): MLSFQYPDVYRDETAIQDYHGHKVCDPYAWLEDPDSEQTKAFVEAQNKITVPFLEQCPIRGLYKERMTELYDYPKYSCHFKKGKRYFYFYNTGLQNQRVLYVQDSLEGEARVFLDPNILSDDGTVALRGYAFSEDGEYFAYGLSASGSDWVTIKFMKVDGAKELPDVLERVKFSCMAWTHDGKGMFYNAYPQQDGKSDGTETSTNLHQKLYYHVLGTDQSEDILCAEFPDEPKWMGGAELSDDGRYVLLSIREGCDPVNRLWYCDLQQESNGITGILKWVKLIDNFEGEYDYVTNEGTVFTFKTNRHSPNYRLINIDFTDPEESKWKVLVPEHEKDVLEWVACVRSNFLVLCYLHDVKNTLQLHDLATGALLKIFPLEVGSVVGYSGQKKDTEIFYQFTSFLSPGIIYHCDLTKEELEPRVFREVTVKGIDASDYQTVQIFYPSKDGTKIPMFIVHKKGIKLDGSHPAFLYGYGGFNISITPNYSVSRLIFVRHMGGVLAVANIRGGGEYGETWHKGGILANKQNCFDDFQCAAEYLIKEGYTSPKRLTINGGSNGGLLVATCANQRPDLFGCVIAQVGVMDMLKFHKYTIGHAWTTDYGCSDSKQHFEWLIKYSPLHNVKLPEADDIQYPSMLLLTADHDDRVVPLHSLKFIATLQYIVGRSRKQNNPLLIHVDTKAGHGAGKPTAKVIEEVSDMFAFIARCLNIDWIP

Compound	IC50
O=C(c1cscn1)[C@@H]1CCCN1C(=O)[C@@H]1CCCN1C(=O)CCCc1ccccc1	5.9 nM
CCOC(=O)C(=O)[C@@H]1CCCN1C(=O)[C@@H]1CCCN1C(=O)CCCc1ccccc1	9.6 nM
